Laboratory results published in ChEMBL document CHEMBL1201862, “PubChem BioAssay data set” (2004).
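Protocol summary: plate cells (96-well), add compound at 5 concentrations, incubate 48 h, interpolate endpoints linearly. The concentration for 50% growth inhibition is given as GI50.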 Activity calls are given as the source filed them. Rule as the data show it: active = GI50 up to about 1.1 µM and inactive = higher.

Columns and labels:
Assay in all cases: NCI-60 cell line screen, 48 h
OVCAR-3 = system: OVCAR-3
T47D = system: T47D
HCC 2998 = system: HCC 2998
MDA-MB-231 = system: MDA-MB-231
OVCAR-5 = system: OVCAR-5
PC-3 = system: PC-3
K562 = system: K562
SNB-19 = system: SNB-19
SK-MEL-2 = system: SK-MEL-2
CCRF-CEM = system: CCRF-CEM
MOLT-4 = system: MOLT-4
IGROV-1 = system: IGROV-1
COLO 205 = system: COLO 205
NCI/ADR-RES = system: NCI/ADR-RES
SK-OV-3 = system: SK-OV-3
HOP-62 = system: HOP-62
RPMI-8226 = system: RPMI-8226
MDA-MB-435 = system: MDA-MB-435
LOX IMVI = system: LOX IMVI
NCI-H23 = system: NCI-H23
UACC-62 = system: UACC-62
SK-MEL-5 = system: SK-MEL-5
CAKI-1 = system: CAKI-1
A498 = system: A498
NCI-H226 = system: NCI-H226
M14 = system: M14
RXF 393 = system: RXF 393
TK-10 = system: TK-10
SN12C = system: SN12C
HCT-116 = system: HCT-116
SF-539 = system: SF-539
EKVX = system: EKVX
SW-620 = system: SW-620
OVCAR-8 = system: OVCAR-8
NCI-H522 = system: NCI-H522
UO-31 = system: UO-31
OVCAR-4 = system: OVCAR-4
BT-549 = system: BT-549
SNB-75 = system: SNB-75
UACC-257 = system: UACC-257
MCF7 = system: MCF7
Hs-578T = system: Hs-578T
HT-29 = system: HT-29
A549 = system: A549
DU-145 = system: DU-145
786-0 = system: 786-0
HCT-15 = system: HCT-15
SF-295 = system: SF-295
SK-MEL-28 = system: SK-MEL-28
SF-268 = system: SF-268
ACHN = system: ACHN
U-251 = system: U-251
HOP-92 = system: HOP-92
KM12 = system: KM12

SMILES: CC(=O)O[C@@H]1CC[C@@]2(C)C(CC[C@H]3[C@@H]4CC[C@H]([C@H](C)CCc5nc6cc(C)ccc6[nH]5)[C@@]4(C)CC[C@@H]32)C1 (some centres undefined)
- GI50 (OVCAR-3): 20.9 µM (inactive)
- GI50 (T47D): 0.0352 µM (active)
- GI50 (HCC 2998): 71.3 µM (inactive)
- GI50 (MDA-MB-231): 18 µM (inactive)
- GI50 (OVCAR-5): > 100 µM (inactive)
- GI50 (PC-3): 9.53 µM (inactive)
- GI50 (K562): 12.6 µM (inactive)
- GI50 (SNB-19): > 100 µM (inactive)
- GI50 (SK-MEL-2): 31 µM (inactive)
- GI50 (CCRF-CEM): 3.44 µM (inactive)
- GI50 (MOLT-4): 28.1 µM (inactive)
- GI50 (IGROV-1): 4.34 µM (inactive)
- GI50 (COLO 205): 24.4 µM (inactive)
- GI50 (NCI/ADR-RES): 97.3 µM (inactive)
- GI50 (SK-OV-3): > 100 µM (inactive)
- GI50 (HOP-62): 13.1 µM (inactive)
- GI50 (RPMI-8226): 8.89 µM (inactive)
- GI50 (MDA-MB-435): > 100 µM (inactive)
- GI50 (LOX IMVI): 1.66 µM (inactive)
- GI50 (NCI-H23): 17.3 µM (inactive)
- GI50 (UACC-62): 11.5 µM (inactive)
- GI50 (SK-MEL-5): 25.9 µM (inactive)
- GI50 (CAKI-1): > 100 µM (inactive)
- GI50 (A498): 92.7 µM (inactive)
- GI50 (NCI-H226): 9.38 µM (inactive)
- GI50 (M14): 16.1 µM (inactive)
- GI50 (RXF 393): 6.81 µM (inactive)
- GI50 (TK-10): > 100 µM (inactive)
- GI50 (SN12C): 41.5 µM (inactive)
- GI50 (HCT-116): > 100 µM (inactive)
- GI50 (SF-539): > 100 µM (inactive)
- GI50 (EKVX): 9.64 µM (inactive)
- GI50 (SW-620): > 100 µM (inactive)
- GI50 (OVCAR-8): 11 µM (inactive)
- GI50 (NCI-H522): 16.7 µM (inactive)
- GI50 (UO-31): 6.38 µM (inactive)
- GI50 (OVCAR-4): 9.77 µM (inactive)
- GI50 (BT-549): 29.8 µM (inactive)
- GI50 (SNB-75): 6.04 µM (inactive)
- GI50 (UACC-257): 38.7 µM (inactive)
- GI50 (MCF7): 38.4 µM (inactive)
- GI50 (Hs-578T): 13.9 µM (inactive)
- GI50 (HT-29): 12.4 µM (inactive)
- GI50 (A549): 43.4 µM (inactive)
- GI50 (DU-145): 45.7 µM (inactive)
- GI50 (786-0): 8.69 µM (inactive)
- GI50 (HCT-15): 46.6 µM
- GI50 (SF-295): 12 µM (inactive)
- GI50 (SK-MEL-28): > 100 µM (inactive)
- GI50 (SF-268): > 100 µM (inactive)
- GI50 (ACHN): 99.3 µM (inactive)
- GI50 (U-251): 18.2 µM (inactive)
- GI50 (HOP-92): 69.5 µM (inactive)
- GI50 (KM12): 12.7 µM (inactive)
